# Data taken from patent publication US20240360194A1, “New Peptides as Potent and Selective GIP Receptor Agonists” (Sanofi, priority 2021, published 2024).
# Numbered stars: 1 amine (or outer) side, 2 acyl side, 3 side chain; on linkers, the order of the positions; unused ones are H or OH. Square brackets hold non-standard residues; d marks the D form. Side chains are listed from the residue outwards. Ends that are not written are not given here. Peptide text beside a SMILES is read from it. * marks the point of attachment. C18 diacid = O=C(O)CCCCCCCCCCCCCCCCC(=O)*; γGlu = O=C(O)[C@H](CCC(=O)[*:2])N[*:1]; αMeV = CC(C)[C@](C)(N)C(=O)O; AEEA = NCCOCCOCC(=O)O; Aib = CC(C)(N)C(=O)O
# B1: SEQ ID NO: 35 (peptide)
# peptide: Y[Aib]EGTFISDLSI[Aib]K([AEEA-AEEA-γGlu-C18 diacid])DRIHQEEFIQWLLAQGPSSGAPPPS-NH2
# modifications: N-terminus assumed
# SMILES: CC[C@H](C)[C@H](NC(=O)[C@H](Cc1ccccc1)NC(=O)[C@H](CCC(=O)O)NC(=O)[C@H](CCC(=O)O)NC(=O)[C@H](CCC(N)=O)NC(=O)[C@H](Cc1c[nH]cn1)NC(=O)[C@@H](NC(=O)[C@H](CCCNC(=N)N)NC(=O)[C@H](CC(=O)O)NC(=O)[C@H](CCCCNC(=O)COCCOCCNC(=O)COCCOCCNC(=O)CC[C@H](NC(=O)CCCCCCCCCCCCCCCCC(=O)O)C(=O)O)NC(=O)C(C)(C)NC(=O)[C@@H](NC(=O)[C@H](CO)NC(=O)[C@H](CC(C)C)NC(=O)[C@H](CC(=O)O)NC(=O)[C@H](CO)NC(=O)[C@@H](NC(=O)[C@H](Cc1ccccc1)NC(=O)[C@@H](NC(=O)CNC(=O)[C@H](CCC(=O)O)NC(=O)C(C)(C)NC(=O)[C@@H](N)Cc1ccc(O)cc1)[C@@H](C)O)[C@@H](C)CC)[C@@H](C)CC)[C@@H](C)CC)C(=O)N[C@@H](CCC(N)=O)C(=O)N[C@@H](Cc1c[nH]c2ccccc12)C(=O)N[C@@H](CC(C)C)C(=O)N[C@@H](CC(C)C)C(=O)N[C@@H](C)C(=O)N[C@@H](CCC(N)=O)C(=O)NCC(=O)N1CCC[C@H]1C(=O)N[C@@H](CO)C(=O)N[C@@H](CO)C(=O)NCC(=O)N[C@@H](C)C(=O)N1CCC[C@H]1C(=O)N1CCC[C@H]1C(=O)N1CCC[C@H]1C(=O)N[C@@H](CO)C(N)=O
# notes: Synthetic peptide, 39 residues (Gln at 24)
# Columns and labels:
# [1] = target: T1, human GIP receptor (hGIPR) (Homo sapiens, UniProt P48546); experiment: In vitro cellular cAMP assay for GIP receptor efficacy (HEK-293 cell line over-expressing receptor); format: cell-based; conditions: EC50 hGIPR 0.1% BSA, HEK-293, 0.1% BSA
# T1 sequence (P48546 22-466): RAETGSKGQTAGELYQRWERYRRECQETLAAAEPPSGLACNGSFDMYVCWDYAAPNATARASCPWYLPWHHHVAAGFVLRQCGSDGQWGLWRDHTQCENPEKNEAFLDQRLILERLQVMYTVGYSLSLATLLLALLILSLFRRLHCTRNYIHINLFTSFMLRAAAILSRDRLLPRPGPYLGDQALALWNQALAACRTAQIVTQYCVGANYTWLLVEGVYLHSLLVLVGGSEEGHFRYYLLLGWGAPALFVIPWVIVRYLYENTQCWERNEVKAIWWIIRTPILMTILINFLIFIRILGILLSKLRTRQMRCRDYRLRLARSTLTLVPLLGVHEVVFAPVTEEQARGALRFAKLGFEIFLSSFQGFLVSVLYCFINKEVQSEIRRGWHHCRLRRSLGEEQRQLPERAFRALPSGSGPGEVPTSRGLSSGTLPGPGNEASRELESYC
# [2] = Solubility assessment (UHPLC-UV of supernatant, target 10 mg/ml); format: physicochemical; conditions: pH 7.4, Soluble amount
# Outline: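 Peptides at 10 mg/ml (purity-corrected) in 100 mM phosphate pH 7.4, optionally with 2.7 mg/ml m-cresol; gentle agitation 1 h, then 5° C. overnight (24 h). Supernatant after 15 min centrifugation at 2500 RCF quantified by UHPLC-UV, with sequence-based extinction coefficients.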
# [3] = target: human GLP-1 receptor (hGLP-1R) (Homo sapiens, UniProt P43220); experiment: In vitro cellular cAMP assay for GLP-1 receptor efficacy (HEK-293 cell line over-expressing receptor); format: cell-based; conditions: HEK-293, 0.1% BSA
# Chain of human GLP-1 receptor (hGLP-1R) (P43220 24-463): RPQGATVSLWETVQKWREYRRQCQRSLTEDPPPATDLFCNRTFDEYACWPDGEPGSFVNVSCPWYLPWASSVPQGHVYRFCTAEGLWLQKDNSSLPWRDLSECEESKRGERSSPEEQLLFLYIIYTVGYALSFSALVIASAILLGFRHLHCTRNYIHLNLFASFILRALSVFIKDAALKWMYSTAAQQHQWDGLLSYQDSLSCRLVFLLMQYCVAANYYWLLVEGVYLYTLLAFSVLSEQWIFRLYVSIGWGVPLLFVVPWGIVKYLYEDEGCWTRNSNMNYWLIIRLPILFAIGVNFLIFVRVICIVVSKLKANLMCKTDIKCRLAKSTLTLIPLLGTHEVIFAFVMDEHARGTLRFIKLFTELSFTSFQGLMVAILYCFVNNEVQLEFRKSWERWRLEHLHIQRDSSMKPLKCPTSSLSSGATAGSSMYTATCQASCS
# human GIP receptor [4] = target: T2, human GIP receptor (Homo sapiens, UniProt P48546); experiment: In vitro cellular cAMP assay for GIP receptor efficacy (human adipocytes); format: cell-based
# T2 construct: human adipocytes endogenously expressing the human GIP receptor; host or cells: human preadipocytes (Lonza) differentiated to adipocytes
# T2 sequence (P48546 22-466): T1 sequence (P48546 22-466)
# Outline: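 Human preadipocytes expanded, then differentiated 6 days (insulin, dexamethasone, PPARγ agonist, 200 μM IBMX, L-thyroxine) before plating at 5000 cells/well. Test compound applied 30 min at room temperature; cAMP measured by HTRF after 1 h with lysis-buffer reagents, read as 665/620 nm fluorescence ratio.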
# [5] = target: T1, human GIP receptor (hGIPR); experiment: Binding assay, displacement of [125I]GIP from HEK-293 membranes over-expressing GIPR (SPA); conditions: [125I]GIP displacement
# Outline: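 Membranes from HEK-293 cells over-expressing human GIPR or GLP-1R, isolated by homogenising, sonicating and ultracentrifuging at 100000×g into HEPES/EDTA/NaCl buffer with protease inhibitors, were used for binding.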
# human GIP receptor [6] = target: T3, human GIP receptor (human, UniProt P48546 22-466); experiment: cell-based or functional assay
# T3 sequence (looked up): T1 sequence (P48546 22-466)
# human GLP-1 receptor = human GLP-1 receptor (human, UniProt P43220 24-463); experiment: cell-based or functional assay
# human GIP receptor [7] = target: T3, human GIP receptor; experiment: cell-based or functional assay; remark: listed apart in the source
molecule,measurement,setting,value
"CC[C@H](C)[C@H](NC(=O)[C@H](Cc1ccccc1)NC(=O)[C@H](CCC(=O)O)NC(=O)[C@H](CCC(=O)O)NC(=O)[C@H](CCC(N)=O)NC(=O)[C@H](Cc1c[nH]cn1)NC(=O)[C@@H](NC(=O)[C@H](CCCNC(=N)N)NC(=O)[C@H](CC(=O)O)NC(=O)[C@H](CCCCNC(=O)COCCOCCNC(=O)COCCOCCNC(=O)CC[C@H](NC(=O)CCCCCCCCCCCCCCCCC(=O)O)C(=O)O)NC(=O)C(C)(C)NC(=O)[C@@H](NC(=O)[C@H](CO)NC(=O)[C@H](CC(C)C)NC(=O)[C@H](CC(=O)O)NC(=O)[C@H](CO)NC(=O)[C@@H](NC(=O)[C@H](Cc1ccccc1)NC(=O)[C@@H](NC(=O)CNC(=O)[C@H](CCC(=O)O)NC(=O)C(C)(C)NC(=O)[C@@H](N)Cc1ccc(O)cc1)[C@@H](C)O)[C@@H](C)CC)[C@@H](C)CC)[C@@H](C)CC)C(=O)N[C@@H](CCC(=O)O)C(=O)N[C@@H](Cc1c[nH]c2ccccc12)C(=O)N[C@@H](CC(C)C)C(=O)N[C@@H](CC(C)C)C(=O)N[C@@H](C)C(=O)N[C@@H](CCC(N)=O)C(=O)N[C@@H](CCC(=O)O)C(=O)NCC(=O)O [SEQ ID NO: 14, H2N-Y-Aib-E-G-T-F-I-S-D-L-S-I-Aib-K[{AEEA}2-gGlu-C18OH]-D-R-I-H-Q-E-E-F-I-E-W-L-L-A-Q-E-G-OH] (H-Y[Aib]EGTFISDLSI[Aib]K([AEEA-AEEA-γGlu-C18 diacid])DRIHQEEFIEWLLAQEG-OH)",EC50,[1],0.0757 nM
"CC[C@H](C)[C@H](NC(=O)[C@H](CCCNC(=N)N)NC(=O)[C@H](CC(=O)O)NC(=O)[C@H](CCCCNC(=O)COCCOCCNC(=O)COCCOCCNC(=O)CC[C@H](NC(=O)CCCCCCCCCCCCCCCCC(=O)O)C(=O)O)NC(=O)C(C)(C)NC(=O)[C@@H](NC(=O)[C@H](CO)NC(=O)[C@H](CC(C)C)NC(=O)[C@H](CC(=O)O)NC(=O)[C@H](CO)NC(=O)[C@@H](NC(=O)[C@@](C)(CC)NC(=O)[C@@H](NC(=O)CNC(=O)[C@H](CCC(=O)O)NC(=O)C(C)(C)NC(=O)[C@@H](N)Cc1ccc(O)cc1)[C@@H](C)O)[C@@H](C)CC)[C@@H](C)CC)C(=O)N[C@@H](Cc1c[nH]cn1)C(=O)N[C@@H](CCC(N)=O)C(=O)NC(C)(C)C(=O)N[C@@H](CCC(=O)O)C(=O)N[C@@](C)(Cc1ccccc1)C(=O)N[C@H](C(=O)N[C@@H](CCC(=O)O)C(=O)N[C@@H](Cc1c[nH]c2ccccc12)C(=O)N[C@@H](CC(C)C)C(=O)N[C@@H](CC(C)C)C(=O)N[C@@H](C)C(=O)N[C@@H](CCC(N)=O)C(=O)N[C@@H](CCCNC(=N)N)C(=O)NCC(N)=O)[C@@H](C)CC [SEQ ID NO: 18, H2N-Y-Aib-E-G-T-Iva-I-S-D-L-S-I-Aib-K[{AEEA}2-gGlu-C18OH]-D-R-I-H-Q-Aib-E-Mph-I-E-W-L-L-A-Q-R-G-NH2]",EC50,[1],0.0179 nM
"CC[C@H](C)[C@H](NC(=O)[C@H](Cc1ccccc1)NC(=O)[C@H](CCC(=O)O)NC(=O)[C@H](CCC(=O)O)NC(=O)[C@H](CCC(N)=O)NC(=O)[C@H](Cc1c[nH]cn1)NC(=O)[C@@H](NC(=O)[C@H](CCCNC(=N)N)NC(=O)[C@H](CC(=O)O)NC(=O)[C@H](CCCCNC(=O)COCCOCCNC(=O)COCCOCCNC(=O)CC[C@H](NC(=O)CCCCCCCCCCCCCCCCC(=O)O)C(=O)O)NC(=O)C(C)(C)NC(=O)[C@@H](NC(=O)[C@H](CO)NC(=O)[C@H](CC(C)C)NC(=O)[C@H](CC(=O)O)NC(=O)[C@H](CO)NC(=O)[C@@H](NC(=O)[C@@](C)(NC(=O)[C@@H](NC(=O)CNC(=O)[C@H](CCC(=O)O)NC(=O)C(C)(C)NC(=O)[C@@H](N)Cc1ccc(O)cc1)[C@@H](C)O)C(C)C)[C@@H](C)CC)[C@@H](C)CC)[C@@H](C)CC)C(=O)N[C@@H](CCC(=O)O)C(=O)N[C@@H](Cc1c[nH]c2ccccc12)C(=O)N[C@@H](CC(C)C)C(=O)N[C@@H](CC(C)C)C(=O)N[C@@H](C)C(=O)N[C@@H](CCC(N)=O)C(=O)NCC(=O)N1CCC[C@H]1C(=O)N[C@@H](CO)C(=O)N[C@@H](CO)C(=O)NCC(=O)N[C@@H](C)C(=O)N1CCC[C@H]1C(=O)N1CCC[C@H]1C(=O)N1CCC[C@H]1C(=O)N[C@@H](CO)C(N)=O [SEQ ID NO: 26, H2N-Y-Aib-E-G-T-Mva-I-S-D-L-S-I-Aib-K[{AEEA}2-gGlu-C18OH]-DRIHQEEFIEWLLAQGPSSGAPPPS-NH2] (H-Y[Aib]EGT[αMeV]ISDLSI[Aib]K([AEEA-AEEA-γGlu-C18 diacid])DRIHQEEFIEWLLAQGPSSGAPPPS-NH2)",EC50,[1],0.0602 nM
"CC[C@H](C)[C@H](NC(=O)[C@H](Cc1ccccc1)NC(=O)[C@H](CCC(=O)O)NC(=O)C(C)(C)NC(=O)[C@H](CCC(N)=O)NC(=O)[C@H](CCCCNC(=O)COCCOCCNC(=O)COCCOCCNC(=O)CC[C@H](NC(=O)CCCCCCCCCCCCCCCCC(=O)O)C(=O)O)NC(=O)[C@H](CCC(N)=O)NC(=O)[C@H](CCC(=O)O)NC(=O)[C@H](CCC(=O)O)NC(=O)[C@H](CC(C)C)NC(=O)C(C)(C)NC(=O)[C@@H](NC(=O)[C@H](CO)NC(=O)[C@H](CC(C)C)NC(=O)[C@H](CC(=O)O)NC(=O)[C@H](CO)NC(=O)[C@@H](NC(=O)[C@H](Cc1ccccc1)NC(=O)[C@@H](NC(=O)CNC(=O)[C@H](CCC(=O)O)NC(=O)C(C)(C)NC(=O)[C@@H](N)Cc1ccc(O)cc1)[C@@H](C)O)[C@@H](C)CC)[C@@H](C)CC)C(=O)N[C@@H](CCC(=O)O)C(=O)N[C@@H](Cc1c[nH]c2ccccc12)C(=O)N[C@@H](CC(C)C)C(=O)N[C@@H](CC(C)C)C(=O)N[C@@H](C)C(=O)N[C@@H](CCC(N)=O)C(=O)NCC(=O)N1CCC[C@H]1C(=O)N[C@@H](CO)C(=O)N[C@@H](CO)C(=O)NCC(=O)N[C@@H](C)C(=O)N1CCC[C@H]1C(=O)N1CCC[C@H]1C(=O)N1CCC[C@H]1C(=O)N[C@@H](CO)C(N)=O [SEQ ID NO: 36, H2N-Y-Aib-E-G-T-F-I-S-D-L-S-I-Aib-L-E-E-Q-K[{AEEA}2-gGlu-C18OH]-Q-Aib-E-F-I-E-W-L-L-A-Q-G-P-S-S-G-A-P-P-P-S-NH2] (H-Y[Aib]EGTFISDLSI[Aib]LEEQK([AEEA-AEEA-γGlu-C18 diacid])Q[Aib]EFIEWLLAQGPSSGAPPPS-NH2)",solubility at 24 h,[2],> 10.7 mg/mL
same,EC50,[3],> 10 nM
same,EC50,human GIP receptor [4]; read-out: hGIPR EC50,0.3 nM
same,Emax,human GIP receptor [4]; read-out: hGIPR Emax,104%
same,IC50,[5],0.2 nM
B1,"EC50 hGIPR 0% HSA (cAMP, HEK-293)",human GIP receptor [6],0.00024 nM
same,"EC50 hGIPR 0.1% BSA (cAMP, HEK-293)",human GIP receptor [6],0.0107 nM
same,"EC50 hGLP-1R 0.1% BSA (cAMP, HEK-293)",human GLP-1 receptor,> 10 nM
same,"hGIPR EC50 (cAMP, human adipocytes)",human GIP receptor [7],1.3 nM
same,"hGIPR Emax (cAMP, human adipocytes)",human GIP receptor [7],120%
